Data on 2 compounds can be found in patent publication US9920357B2, “Systems and methods for identifying cosmetic agents for hair/scalp care compositions” (The Procter & Gamble Company, priority 2012, dated 2018).

The subject of one test is hair count. The test can be described thus: Clinical studies of hair count. In kind it is in vivo.
In test [1] the target is T1, MAOB (Homo sapiens, UniProt P27338).
T1 sequence (P27338 1-520): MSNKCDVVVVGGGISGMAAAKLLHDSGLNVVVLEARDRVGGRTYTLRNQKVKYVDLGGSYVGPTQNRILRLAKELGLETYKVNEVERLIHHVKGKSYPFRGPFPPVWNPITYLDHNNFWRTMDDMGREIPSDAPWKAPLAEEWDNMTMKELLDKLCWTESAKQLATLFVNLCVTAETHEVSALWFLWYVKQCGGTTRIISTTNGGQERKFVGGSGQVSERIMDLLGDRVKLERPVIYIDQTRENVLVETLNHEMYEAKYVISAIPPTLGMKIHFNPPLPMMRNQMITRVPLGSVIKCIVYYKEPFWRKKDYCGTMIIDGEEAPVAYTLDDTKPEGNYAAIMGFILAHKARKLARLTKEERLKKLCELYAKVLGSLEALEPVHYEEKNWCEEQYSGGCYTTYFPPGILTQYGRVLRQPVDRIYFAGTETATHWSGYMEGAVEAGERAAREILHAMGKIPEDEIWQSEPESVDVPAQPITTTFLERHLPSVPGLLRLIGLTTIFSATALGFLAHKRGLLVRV
Briefly: MAOB enzyme inhibition assay. It counts as biochemical. Conditions: active = >=40% inhibition and dose response. Here is the method:
(§1) Affy signatures yielded 60 materials that were plated and provided for evaluation in a MAOB enzyme inhibition assay and 46 pure material were tested in a MAOB reporter assay.

Test [2] deals with MAOB. Briefly: MAOB reporter assay. It counts as cell-based. As to conditions: active = >=60% inhibition and dose response. As for the experimental part:
as §1

With `O=c1cc(-c2ccc(O)cc2)oc2cc(O)cc(O)c12` [Apigenin], the hair count entry in the test with hair count is on record as “significant hair count benefit”.
As for `CCN(CC)CCCC(C)Nc1c2ccc(Cl)cc2nc2ccc(OC)cc12` (stereo not drawn) [quinacrine], the “activity in MAOB enzyme inhibition assay” value at MAOB [1] is “active and hit”. The “activity in MAOB reporter assay” value with MAOB [2] is “active and hit”.
